From PMC8920379, “The discovery of berberine erythrocyte-hemoglobin self-assembly delivery system: a neglected carrier underlying its pharmacokinetics” (Drug Delivery, 2022) come the findings set out here.

Data set [1] has as its system 30% erythrocytes. Put plainly: Berberine loading of erythrocytes (loading efficiency). Format: in vitro ADME, rats. The conditions noted are these: 37 °C, 2 h, n = 3. As for the experimental part: The whole blood was collected from rats by orbital plexus vein and transferred into a blood-collection tube containing ethylene diamine tetraacetic acid (EDTA) as an anticoagulant. The whole blood was centrifuged at 3000 rpm for 10 min. The plasma and the buffy coat in the supernatant were removed by aspiration, and erythrocytes were washed three times in cold phosphate buffer saline (PBS) and centrifuged for 10 min at 3000 rpm, and then resuspended in an appropriate volume of PBS.
In order to determine the effect of BBR concentration on loading efficiency, different concentrations (1.000, 0.100, 0.010 and 0.001 M) of BBR were comparatively used at 37 °C for fixed incubation time (2 h) to obtain the more suitable concentration for the loading process. The hematocrite of washed erythrocytes was adjusted by PBS to 30%. In the 5-mL Eppendorf tubes, 1 mL of 30% erythrocytes was added to 1 mL PBS containing the known concentration of the agent. The final concentrations of BBR in the reaction system were […] (185, 18.5, 1.85 and 0.185 μg/mL), respectively. The mixtures were gently mixed to avoid hemolysis and incubated for 2 h at 37 °C. After incubation, the erythrocytes suspension was centrifuged for 10 min at 3000 rpm and the supernatant was collected.
In order to verify the binding system, the supernatant was analyzed by quantifying the amount of unbound BBR through HPLC. In order to offset this effect, an internal standard method was employed in this study and piperine was chosen as the internal standard substance (200 μg/mL). Different known concentrations (500.00, 100.00, 20.00, 4.00, 0.80, 0.16 μg/mL) of BBR and piperine were used to create the standard curve. The peak area of each concentration with the concentration of piperine was measured 3 times. And then, the calibration curves were prepared using linear regression of known drug concentration versus peak area. The unknown concentration of BBR was analyzed by the regressed equation: y = a(x) + b. While y is the peak area ratio of BBR and piperine, a is the slope, b is the y-intercept, and x is the concentration of BBR.
After incubation, acetonitrile was added to the different incubated solutions for protein precipitation. The mixtures were centrifuged at 8000 rpm for 10 min. The supernatants were collected and dried. The eluates were concentrated and re-dissolved for analysis. The loading efficiency was calculated according to the following formula: Loading efficiency (%) = [(Moriginal drug−Mdrug after incubation)/Moriginal drug] ×100%

A short description of data set [2]: Bioavailability study of BBR via intravenous and oral administration (free drug in plasma, HPLC). The conditions noted are these: rat plasma; for AUC(0-t): n = 8, mean ± SEM. It is filed as in vivo, SD rats. As for the experimental part: Sixteen SD rats were randomly divided into two groups (n = 8) and received a single intragastrical administration (i.g.) of BBR at the dose of 400 mg/kg and intravenous injection (i.v.) at 2.5 mg/kg dose, respectively. Blood samples (0.5 mL) were obtained from the retroorbital sinus at 0.083, 0.167, 0.25, 0.5, 1, 2, 4, 8 and 24 h after administration for i.v. group and at 0.083, 0.167, 0.25, 0.5, 1, 2, 4, 8 and 24 h for i.g. groups. The plasma samples were processed with a protein precipitation method using acetonitrile and the concentration of free drug was analyzed by HPLC (Li et al., [2016]).

Where [3] appears, read: BBR 0.185 μg/mL in BBR-erythrocyte system.
The mark [4] stands for this setting: BBR 1.850 μg/mL in BBR-erythrocyte system.
Where [5] appears, read: BBR 18.500 μg/mL in BBR-erythrocyte system.
Where [6] appears, read: SD, intravenous administration 2.5 mg/kg, n = 8.
Setting [7] is: SD, oral administration 400 mg/kg, n = 8.

“And” between values parts separate entries of the source, which are not always exact repeats. Equal values may be shown once. Read-outs that look alike come from different tables or passages of the source.

In general, AUC(0-inf) refers to total exposure, with the tail of the curve extrapolated. Low values mean low exposure, high ones high exposure. For orientation: MRT means the average time that molecules of a dose stay in the body. Broadly, the AUC(0-t) is the area under the concentration-time curve up to a stated or last time point. The low end stands for low exposure, the high end for high exposure. The Tmax is the time at which the peak concentration occurs.

With `COc1ccc2cc3[n+](cc2c1OC)CCc1cc2c(cc1-3)OCO2` [BBR, Berberine], the results for the “Extracellular BBR concentration after incubation” value in data set [1] (setting [3]), in data set [1] (setting [4]) and in data set [1] (setting [5]) were 0 ± 0.051 µg/mL, 0.115 ± 0.072 µg/mL and 2.288 ± 0.105 µg/mL, respectively. The Loading percentage is 100% and 100 ± 19.84% in data set [1] (setting [3]); 95.528 ± 2.622% in data set [1] (setting [4]); 88.772 ± 0.410% in data set [1] (setting [5]). Moreover, the AUC(0-inf) in data set [2] (setting [6]) amounted to 7440 ± 548 ng·h/mL; in data set [2] (setting [7]) it was 685 ± 93 ng·h/mL. Also, the MRT in data set [2] (setting [6]) was 5.6 ± 0.561 h; in data set [2] (setting [7]), 4.53 ± 0.515 h. The AUC(0-t) in data set [2] (SD, intravenous administration 2.5 mg/kg) came to 6420 ± 685 ng·h/mL; in data set [2] (SD, oral administration 400 mg/kg), 681 ± 93 ng·h/mL. The Cmax in data set [2] (SD, intravenous administration 2.5 mg/kg, n = 8, read-out: Cmax/C0 (C0)) came out at 2830 ± 132 ng/mL; in data set [2] (SD, oral administration 400 mg/kg, n = 8, read-out: Cmax/C0 (Cmax)), 260 ± 32 ng/mL. Also, the Tmax in data set [2] (setting [7]) was 1 h. Further, in data set [2] (SD, oral administration 400 mg/kg, n = 8, read-out: Clz/F (converted)), the CL/F is 254 L/h/kg. In addition, the t1/2z was 3.885 ± 0.389 h in data set [2] (intravenous administration 2.5 mg/kg, n = 8, 2.5 mg/kg) and 3.136 ± 0.357 h in data set [2] (oral administration 400 mg/kg, n = 8, 400 mg/kg).
